Data as given in EP1228058B1, “BENZOPYRANYL GUANIDINE DERIVATIVES, PROCESS FOR PREPARATION THEREOF, AND PHARMACEUTICAL COMPOSITIONS CONTAINING THEM” (Dongbu Hannong Chemical Co., Ltd., priority 1999, dated 2001).

Legend:
[1] = Acute oral toxicity test in rats; conditions: rat, in vivo, single oral dose in 0.5% methyl cellulose, read-out: lethal dose (LD50) for oral administration
Procedure: In this test six-week old SPF SD rats were used with two rats assigned to each group. The compounds of examples 1, 2, 3, 5, 7, 8, 9, 10, 13, 14, 15, 19, 22, 23, 24, 25, 26, 28, 29, 30, 31, 32, 33, 34, 35, 36, 37, 38, 39, 40, 41, 44, 46, 47, 48, 49, 51, 52, 57, 58, 60, 62, 64, 67, 68, 69, 71 and 72 were suspended in 0.5% methyl cellulose, respectively, and administered orally at a single dose of 1 g/kg using a ball-tipped needle. The dosing volume was 10 ml/kg. […] All survivors at the end of the observation period underwent laparotomy under ether anesthesia and the blood samples were taken from the abdominal aorta for hematological tests and biochemical analysis. After sacrificing the animals, autopsy was performed for macroscopic observation of the organs and tissues. Tissue samples of vital organs from macroscopic legion were removed and fixed in 10% neutral buffered formalin solution, then processed by standard procedures for histopathology and examined under light microscope. There were no significant changes in clinical symptoms, body weight and mortalities. Also in hematology, serum chemistry parameters and macroscopic observation, no drug-related changes were observed.

[2] = system: ischemic heart models of rats; experiment: Heart protective (anti-ischemic) activity in ischemic heart models of anesthetized rats; format: in vivo; conditions: 45 min occlusion, 90 min reperfusion
Procedure: Male rats (350-450 g, obtained from the Experimental Animal Team of the Korea Research Institute of Chemical Technology) were anesthetized by the intraperitoneal injection of pentobarbital at a dose of 75 mg/kg. After trachetomy, the rats were rendered to respire artificially at a rate of 60/min with a stroke volume of 10 ml/kg. Cannulars were inserted into the fermoral vein and the fermoral artery and used for drug administration and blood pressure measurement, respectively.
In the ischemic myocardium damage models, the body temperature has an important influence on the results. To avoid the change in the body temperature, a body temperature measuring probe was inserted into the rectum of each rat and the body temperature was constantly kept at 37 °C with the aid of a homeothermic blanket control unit.
Afterwards, during testing, a continuous measurement was made of the mean arterial blood pressures and heart rates from the rats. For the measurement of the blood pressure, a pressure transducer, such as that manufactured by Grass Ins., MA, U.S.A., identified as Model Statham P23XL, was used. The heart rate was measured by a tachometer, such as that manufactured by Gould Inc., OH, U.S.A., identified as Biotachometer. In addition, all of the changes occurring were continuously recorded through the Gould 2000 chart recorder, manufactured by Gould Inc.
The left coronary artery was occluded according to the Selye H. method as follows. The rats underwent a left thoracotomy operation for partial opening of the chest and the right-side chest was pressurized by the middle finger of the left hand to push the heart out. Immediately after the left anterior descending coronary artery hereinafter referred to as (LAD) was carefully stitched using a suture needle with 5-0 silk ligature, the heart was then repositioned in the thoracic cavity while both ends of the ligature were situated outside. The opposite ligature ends were passed through a PE tube (PE100, 2.5 cm) and allowed to stand loose for 20 min for stabilization. Via the cannula inserted into the femoral vein, vehicles or drugs were administered into the rats which were rendered to stand for 30 min in order to sufficiently elicit the efficacies of the drugs. BMS-180448 was used as a control drug and the i.v.administration dose was 0.3 mg/kg for all test drugs of interest and the control drug.
Next, the PE tube which had the doubled strands of the ligature passed therethrough was pushed toward the heart and then, set upright by tightly pulling end regions of the ligature with a hemostatic pincette while pressing the coronary artery. The PE tube was allowed to stand for 45 min for the occlusion of the coronary artery, followed by the removal of the hemostatic pincette and then, by the reperfusion for 90 min.
After the reocclusion of the coronary artery in accordance with the above procedure, the rats were administered with 2 ml of a 1% Evans blue through an intravenous route. Subsequently, an excess of pentobarbital was intravenously injected to kill the rats, after which the heart was removed and then, deprived of the right ventricle and both atria. The left ventricle was cut horizontally to the heart apex into 5 or 6 slices which were weighed. From the surface of each slice, images were input with the aid of a Hi-scope into a computer installed with an image analyzing program (Image Pro Plus). From the images input into the computer, the area of the normal blood stream tissue region which appeared blue in a computer monitor and the area which appeared colorless were measured. The percentage of the colorless area to the total area of each slice was calculated and multiplied by the weight of each slice to determine the area at risk (AAR) of each slice. […]

rat aorta = experiment: Vasodilation effects on isolated blood vessels of rats (methoxamine-constricted aortic rings); format: cell-based; conditions: isolated rat aorta constricted with methoxamine (3 uM); read-out: Vasodilation Activity (in Vitro, rat aorta) (IC50)
Description: Male Sprague-Dawly rats (350-450 g, obtained from the Experimental Animal Team of the Korea Research Institute of Chemical Technology) were knocked unconscious by hitting the occipital region, sacrificed by cervical dislocation, and underwent thoracotomy. After being quickly removed, the thoracic aorta was deprived of the adipose tissue and cut into aortic rings of 3 mm width. The aorta was lightly rubbed with a modified Krebs Henseleit buffer (Physiological Salt Solution, PSS) soaked cotton club to remove the inner epithelial layer therefrom. While being suspended in an organ bath containing a physiological buffer, the vascular tissue was allowed to equilibrate under a resting tension of 2 g and then, stand for 1 hour at 37 °C for stabilization with a supply of a carbogen consisting of 95% O2-5% CO2.
Thereafter, the vascular tissue was constricted with 10^-5 M phenylephrine and washed several times with PSS and this procedure was repeated again to ensure the stable reacivity of vascular smooth muscle to repetitive constriction/dilatation.
In addition, 3x10^-6 M methoxamine was used to induce an intensive constriction in the vascular smooth muscle. When the vasoconstriction induced by the methoxamine reached and maintained a maximum, test compounds and controls were cumulatively added to the organ baths in concentrations of 1, 3, 10 and 30 uM so as to induce vasodilatation. As for the controls, they were Cromakalim and BMS-180448 (the compounds of the chemical formula 2), both known to be the first generation KATP activator with potent vasodilatation and cardioprotection effects.
Following the addition of the drugs, the change in the maximal constriction induced by methoxamine was calculated to plot a concentration-dilation response curve. Through a linear regression analysis, IC50, the drug concentration at which the vascular tissue is 50% dilated, was obtained for each drug.

A7r5 [3] = experiment: Inhibition of intracellular ROS induced by H2O2 (H2DCFDA) in A7r5; format: cell-based; conditions: Rattus norvegicus
Procedure: (§1) Measurement of intracellular ROS (Reactive Oxygen Species) was determined using H2DCFDA (2',7'-dichlorodihydrofluorescein diacetate, Molecular Probes, Eugene, OR, USA). H2DCFDA is a non-polar compound that readily diffused into cells, where it is hydrolyzed by intracellular esterase to polar derivative H2DCF (2',7'-dichlorodihydrofluorescein) which can not cross the cell membrane, and thereby trapped within the cell. H2DCF is low-fluorescent, but converted to high-fluorescent DCF (2',7'-dichlorofluorescein) by intracellular ROS. Therefore, the intracellular ROS formation can be determined from the amount of converted DCF. HUVEC (Human umbilical Vascular Endothelial Cells) or A7r5 (Rat thoracic aorta smooth muscle cells) were used. HUVEC were cultured in Kaighn's F12K medium supplemented with 10% heat-inactivated FBS, 0.1 mg/ml heparin sodium, 0.03-0.05 mg/ml ECGS (Endothelial cell growth supplement) and 1% antibiotics, and A7r5 were cultured in DMEM supplemented with 10% heat inactivated FBS and 1% antibiotics. To measure the intracellular ROS, HUVEC or A7r5 were preincubated for 30 min in the presence of test compounds (10^-7-10^-5 M). Thereafter, cells were stimulated with H2O2 (10^-6 and 10^-5 M for 20 min), and then incubated in the dark for 2 hr at 37 °C in 50 mM phosphate buffer (pH 7.4) containing 5 uM H2DCFDA. The quantity of DCF fluorescence (485 nm excitation, 530 nm emission) was measured using Fluorescence plate reader (FL600, Biotek Instruments).

[4] = system: angiogenesis induced by Angiotensin II in Sprague-Dawley rats; experiment: Suppression of Angiotensin II induced angiogenesis in implanted sponge (99mTc-DTPA clearance); format: in vivo; conditions: Control AII (100nmol) alone, no test drug
HUVEC = experiment: Inhibition of intracellular ROS induced by H2O2 (H2DCFDA) in HUVEC; format: cell-based, Human
Procedure: as §1

A7r5 [5] = experiment: Inhibition of A7r5 mediated LDL oxidation (MDA); format: cell-based, rat; conditions: for % Inhibition LDL + H2O2 (10^-7M): A7r5 plus H2O2 (10^-7 M); for % Inhibition LDL: A7r5 alone, LDL 100 ug/ml, 24 hr
Procedure: A7r5 (ATCC CRL-1444, smooth muscles, thoracic aorta, BDIX rat) cells were cultured in 24 well plates, using the medium of DMEM (Dulbecco's modified Eagle's Medium) supplemented with 10% heat-inactivated FBS (fetal bovine serum) and 1% antibiotics. Confluent A7r5 from plates were washed with phosphate-buffered solution, and DMEM with 10% FBS and 1% antibiotics was added in a total volume of 0.5 ml/well. Cells (2 x 10^5 cells/ml) were preincubated without and with either test compounds (10^-6 - 10^-4 M) or Tocopherol (10^-6 - 10^-4 M) at 37 °C for 30 min. Then, A7r5 alone or A7r5 plus H2O2 (10^-7 M) were exposed to LDL (100 ug/ml) for 24 hr.
The inhibitory effect of the test compounds against the lipid peroxidation was evaluated by calculating MDA reduction rate of the test compounds compared with that of the control group same as the above example 5 (2).

Human LDL = experiment: Inhibition of copper-induced LDL oxidation (MDA, TBA method); format: biochemical; conditions: CuSO4 10 uM, 18 hr
Procedure: Human LDL (sigma) was dissolved in distilled water at a concentration of 1 mg/ml. LDL was dialyzed against three changes of phosphate-buffered solution before oxidation to remove EDTA (ethylenediamine tetraacetate) at 4 °C for 18 hr. EDTA-free LDL (100 ug LDL protein/ml) was incubated in EDTA-free phosphate-buffered solution at 37 °C for 18 hr in the presence of CuSO4 (10 uM) under pretreatment with the test compounds or tochopherol of which final concentrations were 10^-9, 10^-7, and 10^-5 M. Blank was incubated without CuSO^., and vehicle was used as a solvent group. Oxidation was stopped at 4 °C by addition of EDTA (200 uM).
Copper (Cu^+2) facilitates the oxidation of LDL to produce malondialdehyde (MDA), thus the lipid peroxidation was determined by MDA quantification same as the above example 5 (1). The MDA quantification was estimated by reacting samples with 2-thiobarbituric acid (TBA) and measuring the absorbance at 530 nm. 1,1,3,3-Tetramethoxy propane (Sigma) was used as a standard agent, and calculated the quantity of MDA as nmol of MDA equivalents per mg protein. The inhibitory effect of the test compounds against the lipid peroxidation was evaluated by calculating MDA reduction rate of the test compounds compared with that of the control group.

[6] = ORAC (oxygen-radical absorbance capacity) assay; format: biochemical; conditions: 1 ORAC unit = net protection by 1 uM Trolox
Procedure: The method utilized β-PE (β-phycoerythrin) as an indicator protein, and AAPH (2,2'-azobis(2-amidinopropane) dihydrochloride) as a peroxy radical generator. Reaction mixtures consisted of test compounds (10^-6M and 10^-4M), β-PE (1.76 x 10^-8M), and AAPH (3 x 10^-3 M) in 75 mM phosphate buffer (pH 7.0). A final volume of 2 ml was used in 24 well plates. Test compounds were first dissolved in acetone and then added to the reaction mixture. Once AAPH was added, the reaction was initiated at 37 °C and the fluorescence (485 nm excitation, 590 nm emission) was measured every 5 min using Fluorescence reader (FL600, Biotek Instrument). The ORAC units were calculated based on the area under the fluorescence curve of β-PE in the presence of the test compound compared to the area generated by 1 uM Trolox. 1 ORAC unit represents the net protection provided by 1 uM Trolox.

Molecule: COC(OC)[C@@]1(C)Oc2ccc(NC(C)=O)cc2[C@@H](NC(=NC#N)NCc2ccccc2)[C@@H]1O [Example 41]
- LD50 [1]: > 1000 mg/kg
- Anti-ischemic Activity (in vivo, rats) (0.3 mg/kg i.v.) IZ/AAR (%) [2]: 30.25%
- IC50 (rat aorta): > 30 µM

Molecule: CC(C)(Sc1cc(C(C)(C)C)c(O)c(C(C)(C)C)c1)Sc1cc(C(C)(C)C)c(O)c(C(C)(C)C)c1 [Probucol, reference compound]
- inhibition at 10 µM (A7r5 [3]; A7r5, Conc. 10^-5 M, read-out: Inhibition (%) H2O2 (10^-6M)): 185%
- inhibition at 1 µM (A7r5 [3]; A7r5, Conc. 10^-6 M): 184%
- inhibition at 0.1 µM (A7r5 [3]; A7r5, Conc. 10^-7 M, read-out: Inhibition (%) H2O2 (10^-6M)): 72%

Molecule: Angiotensin II [AII, reference compound]
- Clearance of ^99mTC (%) [4]: 44.71%

Molecule: Tocopherol [reference compound]
- Inhibition (%) H2O2 (10^-5M) (HUVEC; Conc. 10^-5 M): 51.0%
- Inhibition (%) H2O2 (10^-6M) (HUVEC; Conc. 10^-5 M): 60.8%
- Inhibition (%) H2O2 (10^-5M) (HUVEC; Conc. 10^-6 M): 30.7%
- Inhibition (%) H2O2 (10^-6M) (HUVEC; Conc. 10^-6 M): 43.2%
- Inhibition (%) H2O2 (10^-5M) (HUVEC; Conc. 10^-7 M): 8.8%
- Inhibition (%) H2O2 (10^-6M) (HUVEC; Conc. 10^-7 M): 13.8%
- % Inhibition LDL + H2O2 (10^-7M) (A7r5 [5]; 10^-4 M): 63.9%
- % Inhibition LDL (A7r5 [5]; 10^-5 M): 57.0%
- % Inhibition LDL + H2O2 (10^-7M) (A7r5 [5]; 10^-5 M): 53.0%
- % Inhibition LDL (A7r5 [5]; 10^-6 M): 41.1%
- % Inhibition LDL + H2O2 (10^-7M) (A7r5 [5]; 10^-6 M): 43.2%
- % Inhibition (Human LDL; 10^-5 M): 29.7%
- % Inhibition (Human LDL; 10^-7 M, 0.1 µM): 21.3%
- % Inhibition (Human LDL; 10^-9 M, 0.001 µM): 18.5%
- ORAC units ([6]; Conc. 10^-4 M): 1.568 ORAC units
- ORAC units ([6]; Conc. 10^-6 M): 1.0 ORAC units
